For one experiment, the target named is PIK3CB (Human) (UniProt P42338). The experiment can be described thus: Enzyme Assay.
Experiment [1] has as its target PIK3CD (Human) (UniProt O00329). The experiment in a line: Enzyme Assay.
The target of a further experiment is PIK3CG (human) (UniProt P48736). The experiment in a line: Enzyme Assay.
Experiment [2] addresses PIK3CD (Human) (UniProt O00329). The experiment can be described thus: Cell-Based Assay. Particulars: raji.

PIK3CD (Human), sequence (O00329 whole entry, looked up): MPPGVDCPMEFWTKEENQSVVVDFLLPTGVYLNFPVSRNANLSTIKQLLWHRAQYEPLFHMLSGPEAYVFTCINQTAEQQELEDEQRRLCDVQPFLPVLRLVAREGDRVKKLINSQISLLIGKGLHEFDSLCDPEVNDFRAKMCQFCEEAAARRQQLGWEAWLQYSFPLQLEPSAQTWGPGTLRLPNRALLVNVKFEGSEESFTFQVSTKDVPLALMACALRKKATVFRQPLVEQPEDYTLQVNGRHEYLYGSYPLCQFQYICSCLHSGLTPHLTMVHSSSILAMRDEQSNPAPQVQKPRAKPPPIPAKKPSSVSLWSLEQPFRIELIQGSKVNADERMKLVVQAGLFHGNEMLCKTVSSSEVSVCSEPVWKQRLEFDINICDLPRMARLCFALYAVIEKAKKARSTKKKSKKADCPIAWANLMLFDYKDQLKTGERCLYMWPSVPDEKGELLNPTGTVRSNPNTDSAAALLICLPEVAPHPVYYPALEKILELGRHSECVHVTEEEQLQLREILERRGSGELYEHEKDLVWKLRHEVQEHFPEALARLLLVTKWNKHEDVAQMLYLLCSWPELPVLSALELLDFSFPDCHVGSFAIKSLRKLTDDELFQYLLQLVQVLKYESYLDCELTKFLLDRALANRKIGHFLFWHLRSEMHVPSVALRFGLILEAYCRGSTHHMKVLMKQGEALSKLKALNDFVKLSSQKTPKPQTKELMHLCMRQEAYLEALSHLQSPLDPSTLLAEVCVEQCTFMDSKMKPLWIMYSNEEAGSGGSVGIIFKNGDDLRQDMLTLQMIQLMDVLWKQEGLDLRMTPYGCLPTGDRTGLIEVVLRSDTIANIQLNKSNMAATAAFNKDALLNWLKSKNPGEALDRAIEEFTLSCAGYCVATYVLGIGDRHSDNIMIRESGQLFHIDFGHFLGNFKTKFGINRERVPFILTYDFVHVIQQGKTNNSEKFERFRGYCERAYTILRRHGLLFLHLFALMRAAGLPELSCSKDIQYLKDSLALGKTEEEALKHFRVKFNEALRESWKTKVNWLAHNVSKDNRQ
PIK3CG (human), sequence (P48736 whole entry, looked up): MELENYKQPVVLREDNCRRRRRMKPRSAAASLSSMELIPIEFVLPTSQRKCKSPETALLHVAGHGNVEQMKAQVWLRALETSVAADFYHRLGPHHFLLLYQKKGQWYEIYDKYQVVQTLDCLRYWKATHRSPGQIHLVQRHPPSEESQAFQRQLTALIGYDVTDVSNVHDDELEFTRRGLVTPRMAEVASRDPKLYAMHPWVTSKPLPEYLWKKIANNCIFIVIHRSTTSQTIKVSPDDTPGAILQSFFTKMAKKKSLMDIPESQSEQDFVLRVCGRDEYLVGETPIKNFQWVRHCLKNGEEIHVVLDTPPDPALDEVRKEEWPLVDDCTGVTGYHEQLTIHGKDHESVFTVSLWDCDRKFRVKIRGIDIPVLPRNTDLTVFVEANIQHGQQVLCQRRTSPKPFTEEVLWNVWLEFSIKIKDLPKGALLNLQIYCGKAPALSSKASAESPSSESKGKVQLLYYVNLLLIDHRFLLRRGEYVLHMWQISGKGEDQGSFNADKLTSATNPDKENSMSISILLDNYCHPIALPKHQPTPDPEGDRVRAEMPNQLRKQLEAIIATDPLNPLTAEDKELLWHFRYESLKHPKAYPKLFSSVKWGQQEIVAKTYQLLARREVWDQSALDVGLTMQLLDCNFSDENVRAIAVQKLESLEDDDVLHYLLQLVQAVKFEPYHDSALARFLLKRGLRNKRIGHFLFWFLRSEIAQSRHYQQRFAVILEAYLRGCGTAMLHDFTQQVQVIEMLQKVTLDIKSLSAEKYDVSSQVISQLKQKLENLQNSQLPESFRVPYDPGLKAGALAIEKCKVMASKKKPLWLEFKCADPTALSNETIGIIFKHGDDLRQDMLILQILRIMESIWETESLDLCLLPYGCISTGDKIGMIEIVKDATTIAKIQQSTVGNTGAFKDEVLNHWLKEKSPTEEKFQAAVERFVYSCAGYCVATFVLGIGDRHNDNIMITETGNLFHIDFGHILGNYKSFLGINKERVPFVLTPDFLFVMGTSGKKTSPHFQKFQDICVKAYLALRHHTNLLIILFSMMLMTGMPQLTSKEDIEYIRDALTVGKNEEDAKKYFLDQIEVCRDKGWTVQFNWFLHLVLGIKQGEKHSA
PIK3CB (Human), sequence (P42338 whole entry, looked up): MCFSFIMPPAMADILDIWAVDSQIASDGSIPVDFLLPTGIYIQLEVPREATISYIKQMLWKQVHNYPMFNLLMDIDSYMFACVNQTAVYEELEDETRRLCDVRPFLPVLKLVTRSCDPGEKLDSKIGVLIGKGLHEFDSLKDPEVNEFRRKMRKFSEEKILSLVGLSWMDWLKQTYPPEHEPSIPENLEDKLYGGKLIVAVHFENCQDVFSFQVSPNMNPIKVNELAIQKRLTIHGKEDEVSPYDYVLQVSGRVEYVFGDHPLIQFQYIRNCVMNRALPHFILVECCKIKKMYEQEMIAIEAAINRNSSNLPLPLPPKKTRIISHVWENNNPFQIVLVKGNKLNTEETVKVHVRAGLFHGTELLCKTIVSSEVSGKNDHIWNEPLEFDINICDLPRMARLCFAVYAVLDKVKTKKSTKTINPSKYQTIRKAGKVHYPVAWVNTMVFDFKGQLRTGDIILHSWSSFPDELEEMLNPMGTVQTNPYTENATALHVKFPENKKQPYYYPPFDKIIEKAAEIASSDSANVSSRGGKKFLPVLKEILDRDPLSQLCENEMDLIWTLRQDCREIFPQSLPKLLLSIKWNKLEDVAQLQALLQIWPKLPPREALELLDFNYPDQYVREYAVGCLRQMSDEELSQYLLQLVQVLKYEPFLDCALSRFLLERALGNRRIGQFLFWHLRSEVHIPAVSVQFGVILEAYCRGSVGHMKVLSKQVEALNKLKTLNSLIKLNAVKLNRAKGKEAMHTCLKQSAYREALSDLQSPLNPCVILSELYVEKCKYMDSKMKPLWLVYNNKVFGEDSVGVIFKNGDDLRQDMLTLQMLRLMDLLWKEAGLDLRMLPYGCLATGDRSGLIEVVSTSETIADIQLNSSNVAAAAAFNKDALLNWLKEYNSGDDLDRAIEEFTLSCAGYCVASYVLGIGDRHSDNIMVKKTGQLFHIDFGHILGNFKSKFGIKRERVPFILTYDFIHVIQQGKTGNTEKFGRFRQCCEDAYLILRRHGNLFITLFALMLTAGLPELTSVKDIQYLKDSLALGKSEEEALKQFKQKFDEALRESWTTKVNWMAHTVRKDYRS

The term IC50 denotes the midpoint of a concentration-inhibition curve. Consider `COC(C)C#Cc1cccc2cc([C@H](C)NC(=O)c3c(N)nn4cccnc34)n(-c3ccccc3)c(=O)c12` (stereo not given in full), for which the half-inhibitory concentration (IC50) on PIK3CB (Human) was in the range of 5 to 10 µM; against PIK3CD (Human) [1], 5 to 10 µM; against PIK3CG (human), 0.1 to 0.5 µM; at PIK3CD (Human) [2], 1 to 10 µM.

For the compound `C[C@H](NC(=O)c1c(N)nn2cccnc12)c1cc2cccc(C#CC3CNC3)c2c(=O)n1-c1ccccc1`, the IC50 at PIK3CB (Human) was in the range of 5 to 10 µM; against PIK3CD (Human) [1] it was 1 to 5 µM; against PIK3CG (human), 0.5 to 1 µM; against PIK3CD (Human) [2] it was 1 to 10 µM.

`Cc1ncccc1C#Cc1cccc2cc([C@H](C)NC(=O)c3c(N)nn4cccnc34)n(-c3ccccc3)c(=O)c12`: the IC50 lay within 5 to 10 µM on PIK3CB (Human), 5 to 10 µM on PIK3CD (Human) [1], 1 to 5 µM on PIK3CG (human) and 1 to 10 µM at PIK3CD (Human) [2].

With `C/C=C/c1cccc2cc([C@H](C)NC(=O)c3c(N)nn4cccnc34)n(-c3ccccc3)c(=O)c12`, the IC50 against PIK3CB (Human) lay in the range of 5 to 10 µM; on PIK3CD (Human) [1] it was 5 to 10 µM; on PIK3CG (human), 0.1 to 0.5 µM; on PIK3CD (Human) [2] it was 0.001 to 0.1 µM.

Consider `Cc1c(C#Cc2cccc3cc([C@H](C)NC(=O)c4c(N)nn5cccnc45)n(-c4ccccc4)c(=O)c23)cnn1C`, for which the IC50 was in the range of 5 to 10 µM on PIK3CB (Human), 5 to 10 µM against PIK3CD (Human) [1], 0.1 to 0.5 µM against PIK3CG (human) and 0.5 to 1 µM on PIK3CD (Human) [2].

As to `C[C@H](NC(=O)c1c(N)nn2cccnc12)c1cc2cccc(C#CCN(C)C)c2c(=O)n1-c1ccccc1`, the IC50 against PIK3CB (Human) was 5 to 10 µM; against PIK3CD (Human) [1], 5 to 10 µM; at PIK3CG (human), 0.5 to 1 µM; against PIK3CD (Human) [2], 0.1 to 0.5 µM.

On to `Cc1c(C#Cc2cccc3nc([C@H](C)NC(=O)c4c(N)nn5cccnc45)n(-c4ccccc4)c(=O)c23)cnn1C`, for which the IC50 was 5 to 10 µM at PIK3CB (Human), 5 to 10 µM on PIK3CD (Human) [1], 0.1 to 0.5 µM against PIK3CG (human) and 0.1 to 0.5 µM on PIK3CD (Human) [2].

Regarding `Cc1scnc1C#Cc1cccc2cc([C@H](C)NC(=O)c3c(N)nn4cccnc34)n(-c3ccccc3)c(=O)c12`, the IC50 against PIK3CB (Human) was in the range of 5 to 10 µM; at PIK3CD (Human) [1] it was 5 to 10 µM; against PIK3CG (human) it was 0.1 to 0.5 µM; against PIK3CD (Human) [2], 0.1 to 0.5 µM.

In the case of `C[C@H](NC(=O)c1c(N)nn2cccnc12)c1cc2cccc(C#CC3CCN(S(C)(=O)=O)CC3)c2c(=O)n1-c1ccccc1`, the IC50 lay within 5 to 10 µM on PIK3CB (Human), 5 to 10 µM against PIK3CD (Human) [1], 0.5 to 1 µM on PIK3CG (human) and 0.5 to 1 µM against PIK3CD (Human) [2].

As for `C[C@H](NC(=O)c1c(N)nn2cccnc12)c1cc2cccc(C#CC=O)c2c(=O)n1-c1ccccc1`, the IC50 fell in the range of 0.001 to 0.5 µM on PIK3CB (Human), 1 to 5 µM at PIK3CD (Human) [1], 0.001 to 0.1 µM on PIK3CG (human) and 0.1 to 0.5 µM against PIK3CD (Human) [2].

Turning to `C[C@H](NC(=O)c1c(N)nn2cccnc12)c1cc2cccc(C#Cc3ccccn3)c2c(=O)n1-c1ccccc1`, the IC50 lay within 5 to 10 µM on PIK3CB (Human), 5 to 10 µM against PIK3CD (Human) [1], 0.1 to 0.5 µM against PIK3CG (human) and 0.5 to 1 µM on PIK3CD (Human) [2].

Regarding `COc1cnc(C(=O)N[C@@H](C)c2cc3cccc(C#Cc4cnn(C)c4)c3c(=O)n2-c2ccccc2)c(N)n1`, the IC50 was 5 to 10 µM against PIK3CB (Human), 5 to 10 µM against PIK3CD (Human) [1], greater than 5 µM against PIK3CG (human) and 1 to 10 µM against PIK3CD (Human) [2].

For the compound `C[C@H](NC(=O)c1c(N)nn2cccnc12)c1nc2cccc(C#Cc3cnn(C)c3)c2c(=O)n1C`, the IC50 against PIK3CB (Human) lay within 1 to 5 µM; against PIK3CD (Human) [1] it was 5 to 10 µM; on PIK3CG (human), 1 to 5 µM; on PIK3CD (Human) [2], 0.5 to 1 µM.

For `C[C@H](NC(=O)c1c(N)nn2cccnc12)c1cc2cccc(C#CC3CCCC3)c2c(=O)n1-c1ccccc1`, the IC50 was in the range of 5 to 10 µM at PIK3CB (Human), 5 to 10 µM at PIK3CD (Human) [1], 1 to 5 µM on PIK3CG (human) and 1 to 10 µM at PIK3CD (Human) [2].

Turning to `C[C@H](NC(=O)c1nccnc1N)c1cc2cccc(C#Cc3cnn(C)c3)c2c(=O)n1-c1ccccc1`, the IC50 lay within 1 to 5 µM on PIK3CB (Human), 1 to 5 µM at PIK3CD (Human) [1], 0.1 to 0.5 µM against PIK3CG (human) and 0.001 to 0.1 µM at PIK3CD (Human) [2].

(Values after the Kinase Knowledgebase extract (Sharma et al. 2016).)
